Test results published in PMC4300553, “A dynamically coupled allosteric network underlies binding cooperativity in Src kinase” (Nature Communications, 2015).
Entries after “also recorded” stand apart in the source; their conditions may differ. Where two headings read alike, the source gives them in different places.

What was measured:
[1] = target: T338I mutant Src 3-domain construct (Gallus gallus, UniProt P00523, T338I); assay: Km of ATP and substrate peptide, T338I mutant Src 3-domain construct; assay type: biochemical; conditions: higher Km for ATP, lower Km for substrate peptide
[2] = target: T1, Src kinase domain (Gallus gallus, UniProt P00523); assay: Kinase activity assay (continuous spectrophotometric), Src kinase domain; assay type: biochemical, chicken; conditions: for Km: 25 nM Src kinase domain, mean ± s.e.m., triplicate
T1 construct: chicken c-Src (residues 251–533); made in house
Protocol: (§3) Mutations were introduced into the chicken c-Src kinase domain by site-directed mutagenesis and verified by DNA sequencing.
(§4) For the continuous spectrophotometric assay[64], 12.5–800 μM ATP Src-optimal substrate peptide ([sequence])[34] was combined with 12.5–800 μM ATP. Concentrations of Src kinase domain used for these assays were 25 nM. The initial velocities were plotted and fit to the Michaelis–Menten equation in Kaleidagraph (Synergy Software) to determine Km.

[3] = test system: Src D404N; assay: Nucleotide binding to Src D404N; parameters: species or system chicken; conditions: asparagine incapable of chelating Mg2+; Supplementary Fig. 10
Protocol: (§1) Thermodynamic binding parameters for the binding of nucleotides to the Src kinase domain were obtained through isothermal titration calorimetry as published. All experiments were run in a VP-ITC instrument (Microcal) at 25 °C. Proteins were exchanged into 20 mM Tris (pH 8.0), 250 mM NaCl, 10 mM MgCl2 on PD-10 buffer exchange columns (GE Life-science) and diluted to 50–100 μM. Nucleotide stocks (Sigma) were made in buffer to final concentrations between 1 and 3 mM. The heat of binding was measured over the injection of 295 μl of drug in 10-μl steps spaced 300 s apart. Data were fit to a one binding site model using the Origin software package (Microcal). Error bars represent the s.e. of the mean of three independent runs. Representative enthalpograms are shown in Supplementary Fig. 7.
Supplementary Figure 10. Mutations to the allosteric network produce biochemical phenotypes. (A) Location of residues involved in the allosteric network (colored beads). (B) Representative conformations of Src wt and D404N. As shown, Asn404 mimics protonated Asp404 by forming hydrogen bonds with Asp386, and affects the conformation of Arg388, Trp428, and other residues involved in the substrate binding. (C) The effects of D404N mutation to three key residue-residue interaction of the putative allosteric network. (D) Dissociation […]
substrate binding. […]

[4] = test system: Src T338I; conditions: T338I versus wild type
[5] = target: T2, Abl kinase domain (Homo sapiens, UniProt P00519); assay: Kinase activity assay, Abl kinase domain; assay type: biochemical; conditions: increasing substrate-peptide (RS1) concentration; Fig. 3b
T2 construct: human c-Abl (residues 229–512); made in house
T2 sequence (P00519 229-512): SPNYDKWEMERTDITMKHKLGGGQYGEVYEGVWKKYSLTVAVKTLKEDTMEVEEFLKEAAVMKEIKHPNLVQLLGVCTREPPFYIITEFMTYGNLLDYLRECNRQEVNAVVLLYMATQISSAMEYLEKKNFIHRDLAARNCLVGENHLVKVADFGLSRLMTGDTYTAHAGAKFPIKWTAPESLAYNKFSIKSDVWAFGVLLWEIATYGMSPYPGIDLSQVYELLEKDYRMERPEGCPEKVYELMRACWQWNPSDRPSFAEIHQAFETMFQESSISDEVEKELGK
Protocol: as §3, §4

[6] = target: T3, Hck kinase domain (Homo sapiens, UniProt P08631); assay: Kinase activity assay, Hck kinase domain; assay type: biochemical; conditions: increasing substrate-peptide (RS1) concentration; Fig. 3b
T3 construct: human Hck (residues 166–445); made in house
T3 sequence (P08631 247-526): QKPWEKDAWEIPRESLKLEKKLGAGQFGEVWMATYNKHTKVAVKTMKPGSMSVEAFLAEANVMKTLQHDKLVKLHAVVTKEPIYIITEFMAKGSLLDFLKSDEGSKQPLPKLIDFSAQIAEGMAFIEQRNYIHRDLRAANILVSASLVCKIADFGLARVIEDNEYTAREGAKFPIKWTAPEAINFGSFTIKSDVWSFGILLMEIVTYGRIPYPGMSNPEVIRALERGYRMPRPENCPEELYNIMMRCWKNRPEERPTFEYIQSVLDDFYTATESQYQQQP
Protocol: as §3, §4

[7] = target: T1, Src kinase domain; assay: Fluorescence anisotropy binding assay, substrate peptide to Src kinase domain (wild type); parameters: species or system chicken; conditions: for binding cooperativity of substrates and products (summary): ATP + substrate peptide, ADP + pRS1, Src kinase; for cooperativity of peptide and AMP-PNP binding: Kd at various concentrations of AMP-PNP, 1 μM labelled peptide; for change of Kd of substrate peptide by AMP-PNP: increasing AMP-PNP concentration
Protocol: After a 1-min equilibration, the increase in the fluorescence anisotropy of the fluorescently labelled ligand was recorded using a Fluoromax 4 (Horiba) and fitted against a quadratic binding equation in Kaleidagraph (Synergy Software) to yield the Kd. Error bars represent the s.e. of the mean of the independent runs.

[8] = test system: Ser/Thr kinase PKA; conditions: cited from earlier work
From the text: The putative allosteric network discussed above may manifest itself in the form of cooperativity between ATP and substrate binding. […] Higher concentrations of AMP-PNP, a non-hydrolysable ATP ana ...

[9] = test system: Src W260A; assay: Kinase activity assay, Src W260A; assay type: biochemical, chicken; conditions: W260A versus wild type
Protocol: as §3, §4

[10] = test system: Src 3-domain construct; assay: Cooperativity in Src three-domain construct (KM and KD); assay type: binding; conditions: Supplementary Fig. 6
From the text: Domain Kinase. (A) The effect of ATP concentration on substrate KM for Src kinase domain and 3-domain construct. (B) The effect of ATP concentration on substrate KM for WT and T338I mutant Src 3-domain construct (C) The effect of peptide concentration on ATP KM for Src kinase domain and 3-domain construct. (D) The effect of substrate concentration on ATP KM for WT and T338I mutant Src 3-domain construct. (E) Dissociation constants Src kinase domain and 3-domain constructs at increasing AMP-PNP concentration. (F) Dissociation constants for WT and T338I mutant Src 3-domain construct. KM values were determined in a kinase activity assay. KD values for the substrate peptides were determined using fluorescence anisotropy at 1 µM labeled peptide. All experiments were performed in triplicate, and data represent mean values ± s.e.m.
(§2) (1 picture or pasted object on this page, not shown here)

[11] = target: T1, Src kinase domain; assay: Isothermal titration calorimetry, nucleotide binding to Src kinase domain; parameters: species or system chicken; conditions: for Kd: isothermal titration calorimetry, 25 °C, 20 mM Tris (pH 8.0), 250 mM NaCl, 10 mM MgCl2; for fold reduction of nucleotide Kd by phosphorylated peptide (pRs1): presence of pRs1
Protocol: as §1
Supplementary Figure 7. Isothermal Titration Calorimetry of Src Binding to AMP-PNP and
ADP (A) Sample titration curve for AMP-PNP binding to the Src kinase domain.(B) Sample
titration curve of ADP binding to the Src kinase domain. All experiments were run in a VP-ITC
instrument (Micro-cal) at 25 °C. Proteins were exchanged into 20 mM Tris (pH 8.0), 250 mM
NaCl, 10 mM MgCl2 on PD-10 buffer exchange columns (GE Life-science), and diluted to 50–
as §2

[12] = test system: kinase; conditions: high Mg2+ concentration; cited from earlier work
From the text: Mg^2+ ions accompany ATP and ADP binding in protein kinases, mediating interactions between phosphate groups and conserved Asp and Asn residues (Asp404 and Asn391 in Src). On the other hand, in some kinase-ADP co-crystal structures, Mg^2+ ions are missing. In such cases, the Asp residue of the DFG motif (Asp404 in Src) is almost certainly protonated to prevent negative charge repulsion from the ADP phosphate group only 3.2 Å away (for example, PDB entry 1JBP (ref. [16])).

[13] = 100 mM Tris, pH 8.0, 10 mM MgCl2, 25 °C

Question: For `Nc1ncnc2c1ncn2[C@@H]1O[C@H](COP(=O)(O)OP(=O)(O)OP(=O)(O)O)[C@@H](O)[C@H]1O` [ATP], which “Km of T338I three-domain Src relative to wild type” value [1] is on record?
Answer: The value was “This relationship holds for three-domain Src”.

Question: What about the Km ([2]; 50 μM substrate peptide, read-out: Km for ATP at 50 μM substrate peptide) of the same compound?
Answer: The Km was 54 ± 22 µM.

Question: And the Km ([2]; 800 μM substrate peptide, read-out: Km for ATP at 800 μM substrate peptide)?
Answer: Its Km is 202 ± 21 µM.

Question: What about the “ATP Km versus substrate-peptide concentration, Src” value ([2]; increasing substrate-peptide (RS1) concentration, Fig. 3b) of the same compound?
Answer: The value was “increases with increasing substrate-peptide concentration”.

Question: What about the “ATP binding to Src D404N” value [3] of the same compound?
Answer: The value was “does not bind ATP favourably”.

Question: What about the “Km of T338I for ATP relative to wild type” value [4] of the same compound?
Answer: The value was “twofold higher”.

Question: What about the “ATP Km versus substrate-peptide concentration, Abl” value [5] of the same compound?
Answer: The value was “increases with increasing substrate-peptide concentration”.

Question: What about the “ATP Km versus substrate-peptide concentration, Hck” value [6] of the same compound?
Answer: The value was “increases with increasing substrate-peptide concentration”.

Question: What about the “binding cooperativity of substrates and products (summary)” value [7] of the same compound?
Answer: Its value is “negative cooperativity”.

Question: And the “Mg2+ dependence of binding and cooperativity” value ([7]; presence vs absence of Mg2+, ionic strength adjusted to 40 mM with NaCl, Supplementary Fig. 9)?
Answer: The value was “disrupts ATP binding; also recorded: requires the presence of Mg^2+”.

Question: And the “cooperativity between ATP and substrate binding, PKA” value [8]?
Answer: Its value is “positive cooperativity”.

Question: What about the “Km of W260A for ATP relative to wild type” value [9] of the same compound?
Answer: Its value is “two- to fivefold lower”.

Question: What about the “cooperativity of ATP and substrate binding, three-domain construct” value [10] of the same compound?
Answer: The value was “negative cooperativity is present”.

Question: Which “cooperativity of peptide and AMP-PNP binding” value [7, 13] does the source give for AEEMIYGEFAKKK [Rs2] here?
Answer: Its value is “negative cooperativity independent of their overall affinity”.

Question: For “GIYWHHY [Rs3, short substrate peptide (GIYWHHY)]”, which “cooperativity of peptide and AMP-PNP binding” value [7, 13] is on record?
Answer: The value was “negative cooperativity independent of their overall affinity”.

Question: What does the source list for `Nc1ncnc2c1ncn2[C@@H]1O[C@H](COP(=O)(O)OP(=O)(O)NP(=O)(O)O)[C@@H](O)[C@H]1O` [AMP-PNP]?
Answer: Kd [11]: 45 to 100 µM; fold reduction of nucleotide Kd by phosphorylated peptide (pRs1) [11]: three

Question: Which Kd [7] does the source give for `CC[C@H](C)[C@H](NC(=O)[C@H](CCC(=O)O)NC(=O)[C@H](CCC(=O)O)NC(=O)[C@H](CCC(=O)O)NC(=O)[C@H](C)N)C(=O)N[C@@H](Cc1ccc(O)cc1)C(=O)NCC(=O)N[C@@H](CCC(=O)O)C(=O)N[C@@H](Cc1ccccc1)C(=O)N[C@@H](C)C(=O)N[C@@H](CCCCN)C(=O)N[C@@H](CCCCN)C(=O)N[C@@H](CCCCN)C(=O)O` [Rs1] here?
Answer: The Kd was 37 ± 7 µM.

Question: And the Kd ([7]; 100 μM ADP, 1 μM fluorescein-labelled peptide, 100 mM Tris, pH 8.0, 10 mM MgCl2, 25 °C, mean ± s.e.m., triplicate, read-out: Kd of substrate peptide at 100 μM ADP)?
Answer: Its Kd is 17 ± 4 µM.

Question: And the Kd ([7]; 1,000 μM ADP, 1 μM fluorescein-labelled peptide, 100 mM Tris, pH 8.0, 10 mM MgCl2, 25 °C, mean ± s.e.m., triplicate, read-out: Kd of substrate peptide at 1,000 μM ADP)?
Answer: The Kd was 16 ± 2 µM.

Question: And the “change of Kd of substrate peptide by AMP-PNP” value ([7]; 1 μM fluorescein-labelled peptide, 100 mM Tris, pH 8.0, 10 mM MgCl2, 25 °C, listed as optimal substrate peptide for Src)?
Answer: The value was “increase the Kd up to fivefold”.

Question: What about the “change of Kd of substrate peptide by AMP-PNP” value ([7]; 1 μM fluorescein-labelled peptide, 100 mM Tris, pH 8.0, 10 mM MgCl2, 25 °C, listed as substrate peptide) of the same compound?
Answer: The value was “increases the Kd of substrate peptide fivefold”.

Question: With `Nc1ncnc2c1ncn2[C@@H]1O[C@H](COP(=O)(O)OP(=O)(O)O)[C@@H](O)[C@H]1O` [ADP] as the compound, how does the “ADP release in kinase catalytic cycle” value [12] read?
Answer: Its value is “slower at high Mg^2+ concentration”.

Question: What about the “binding cooperativity of substrates and products (summary)” value [7] of the same compound?
Answer: The value was “positive cooperativity”.

Question: And the Kd [11]?
Answer: The Kd was 45 to 100 µM.

Question: What about the “fold reduction of nucleotide Kd by phosphorylated peptide (pRs1)” value [11] of the same compound?
Answer: Its value is “twofold”.
